This assay addresses IDH2 R140Q (Homo sapiens (Human), UniProt P48735, R140Q). The assay is described as follows: IDH2 R140Q enzymatic cofactor depletion assay (diaphorase/resazurin). The class given is biochemical. The note with it: IDH2 R140Q enzyme, one hour preincubation with compound, one hour reaction; read-out: Enz R140Q. Summed up:
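Enzyme preincubated with compound 1 h at room temperature, then reaction started with 50 μM NADPH and 6.3 mM α-KG and run 1 h at room temperature. Remaining NADPH measured by diaphorase (36 μg/ml)/resazurin (60 μM) stop mix, fluorescence read at Ex544/Em590 after 1 min.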
(In general: Resazurin is reduced to fluorescent resorufin, in cell work by metabolically active cells.)
Sequence of IDH2 R140Q (P48735 40-452 R140Q): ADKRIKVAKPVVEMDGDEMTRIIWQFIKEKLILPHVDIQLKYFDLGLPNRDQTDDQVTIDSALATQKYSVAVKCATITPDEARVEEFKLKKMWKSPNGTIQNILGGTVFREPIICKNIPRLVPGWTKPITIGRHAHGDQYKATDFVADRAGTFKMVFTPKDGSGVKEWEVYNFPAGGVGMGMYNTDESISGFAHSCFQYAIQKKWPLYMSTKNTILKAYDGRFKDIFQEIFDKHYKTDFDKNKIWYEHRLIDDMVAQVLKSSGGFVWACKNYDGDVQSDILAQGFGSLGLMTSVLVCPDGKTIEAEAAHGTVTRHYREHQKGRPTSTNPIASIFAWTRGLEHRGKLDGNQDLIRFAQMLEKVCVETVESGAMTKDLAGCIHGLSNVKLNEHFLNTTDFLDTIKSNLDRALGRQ
As for `O=C(Nc1cccc(C(F)(F)F)c1)Nc1cc(S(=O)(=O)NCCO)ccc1-c1ccsc1` [Compound 120, N-(2-hydroxyethyl)-4-(thiophen-3-yl)-3-(3-(3-(trifluoromethyl)phenyl)ureido)benzenesulfonamide], the IC50 was 100 to 1000 nM.

Consider `COCCNS(=O)(=O)c1ccc(-c2ccsc2)c(NC(=O)Nc2cccc(C(F)(F)F)c2)c1` [Compound 121, N-(2-methoxyethyl)-4-(thiophen-3-yl)-3-(3-(3-(trifluoromethyl)phenyl)ureido)benzenesulfonamide], for which the IC50 was 100 to 1000 nM.

Consider `COCCCNS(=O)(=O)c1ccc(-c2ccsc2)c(NC(=O)Nc2cccc(C(F)(F)F)c2)c1` [Compound 122, N-(3-methoxypropyl)-4-(thiophen-3-yl)-3-(3-(3-(trifluoromethyl)phenyl)ureido)benzenesulfonamide], for which the IC50 lay within 100 to 1000 nM.

With `CC(C)C(CO)NS(=O)(=O)c1ccc(-c2ccsc2)c(NC(=O)Nc2cccc(C(F)(F)F)c2)c1` (stereo not drawn) [Compound 123, N-(1-hydroxy-3-methylbutan-2-yl)-4-(thiophen-3-yl)-3-(3-(3-(trifluoromethyl)phenyl)ureido)benzene sulfonamide], the IC50 is 100 to 1000 nM.

As for `O=C(Nc1cccc(C(F)(F)F)c1)Nc1cc(S(=O)(=O)NC2CCC2)ccc1-c1ccsc1` [Compound 125, N-cyclobutyl-4-(thiophen-3-yl)-3-(3-(3-(trifluoromethyl)phenyl)ureido)benzenesulfonamide], the IC50 was 100 to 1000 nM.

`O=C(Nc1cccc(C(F)(F)F)c1)Nc1cc(S(=O)(=O)NC2CCCC2)ccc1-c1ccsc1` [Compound 126, N-cyclopentyl-4-(thiophen-3-yl)-3-(3-(3-(trifluoromethyl)phenyl)ureido)benzenesulfonamide]: the IC50 was in the range of 100 to 1000 nM.

Turning to `O=C(Nc1cccc(C(F)(F)F)c1)Nc1cc(S(=O)(=O)NCC2CC2)ccc1-c1ccsc1` [Compound 127, N-(cyclopropylmethyl)-4-(thiophen-3-yl)-3-(3-(3-(trifluoromethyl)phenyl)ureido)benzenesulfonamide], the IC50 lay in the range of 100 to 1000 nM.

`O=C(Nc1cccc(C(F)(F)F)c1)Nc1cc(S(=O)(=O)NCC2CCC2)ccc1-c1ccsc1` [Compound 128, N-(cyclobutylmethyl)-4-(thiophen-3-yl)-3-(3-(3-(trifluoromethyl)phenyl)ureido)benzenesulfonamide]: the IC50 was 100 to 1000 nM.

Turning to `O=C(Nc1cccc(C(F)(F)F)c1)Nc1cc(S(=O)(=O)NCC2CCCC2)ccc1-c1ccsc1` [Compound 129, N-(cyclopentylmethyl)-4-(thiophen-3-yl)-3-(3-(3-(trifluoromethyl)phenyl)ureido)benzenesulfonamide], the IC50 was in the range of 100 to 1000 nM.

With `O=C(Nc1cccc(C(F)(F)F)c1)Nc1cc(S(=O)(=O)NCC(F)(F)F)ccc1-c1ccsc1` [Compound 130, 4-(thiophen-3-yl)-N-(2,2,2-trifluoroethyl)-3-(3-(3-(trifluoromethyl)phenyl)ureido)benzenesulfonamide], the IC50 is 100 to 1000 nM.

As to `O=C(Nc1cccc(C(F)(F)F)c1)Nc1cc(S(=O)(=O)N2CCOCC2)ccc1-c1ccsc1` [Compound 131, 1-(5-(morpholinosulfonyl)-2-(thiophen-3-yl)phenyl)-3-(3-(trifluoromethyl)phenyl)urea], the IC50 lay within 100 to 1000 nM.

`O=C(Nc1cccc(C(F)(F)F)c1)Nc1cc(S(=O)(=O)NC2CCOCC2)ccc1-c1ccsc1` [Compound 132, N-(tetrahydro-2H-pyran-4-yl)-4-(thiophen-3-yl)-3-(3-(3-(trifluoromethyl)phenyl)ureido)benzene sulfonamide]: the IC50 fell in the range of 100 to 1000 nM.

With `O=C(Nc1cccc(C(F)(F)F)c1)Nc1cc(S(=O)(=O)NCC2CCOCC2)ccc1-c1ccsc1` [Compound 133, N-((tetrahydro-2H-pyran-4-yl)methyl)-4-(thiophen-3-yl)-3-(3-(3-(trifluoromethyl)phenyl)ureido)benzene sulfonamide], the IC50 lay in the range of 100 to 1000 nM.

Regarding `O=C(Nc1cccc(C(F)(F)F)c1)Nc1cc(S(=O)(=O)NC2CCSCC2)ccc1-c1ccsc1` [Compound 134, N-(tetrahydro-2H-thiopyran-4-yl)-4-(thiophen-3-yl)-3-(3-(3-(trifluoromethyl)phenyl)ureido)benzene sulfonamide], the IC50 is 100 to 1000 nM.

As for `O=C(Nc1cccc(C(F)(F)F)c1)Nc1cc(S(=O)(=O)N2CCS(=O)(=O)CC2)ccc1-c1ccsc1` [Compound 135, 1-(5-((1,1-dioxidothiomorpholino)sulfonyl)-2-(thiophen-3-yl)phenyl)-3-(3-(trifluoromethyl)phenyl)urea], the IC50 lay within 100 to 1000 nM.

Consider `O=C(Nc1cccc(C(F)(F)F)c1)Nc1cc(S(=O)(=O)NCc2ccccc2)ccc1-c1ccsc1` [Compound 136, N-benzyl-4-(thiophen-3-yl)-3-(3-(3-(trifluoromethyl)phenyl)ureido)benzenesulfonamide], for which the IC50 was in the range of 100 to 1000 nM.

As for `CN(C)S(=O)(=O)c1ccc(-c2ccsc2)c(NC(=O)Nc2cccc(C(F)(F)F)c2)c1` [Compound 137], the IC50 lay in the range of 1000 to 10000 nM.

With `CONS(=O)(=O)c1ccc(-c2ccsc2)c(NC(=O)Nc2cccc(C(F)(F)F)c2)c1` [Compound 138, N-methoxy-4-(thiophen-3-yl)-3-(3-(3-(trifluoromethyl)phenyl)ureido)benzenesulfonamide], the IC50 lay in the range of 100 to 1000 nM.

With `CCONS(=O)(=O)c1ccc(-c2ccsc2)c(NC(=O)Nc2cccc(C(F)(F)F)c2)c1` [Compound 139, N-ethoxy-4-(thiophen-3-yl)-3-(3-(3-(trifluoromethyl)phenyl)ureido)benzenesulfonamide], the IC50 lay in the range of 100 to 1000 nM.

Consider `O=C(Nc1cccc(C(F)(F)F)c1)Nc1cc(S(=O)(=O)N2CCC2)ccc1-c1ccsc1` [Compound 140], for which the IC50 was 1000 to 10000 nM.

As for `O=C(Nc1cccc(C(F)(F)F)c1)Nc1cc(S(=O)(=O)N2CCCC2)ccc1-c1ccsc1` [Compound 141], the IC50 fell in the range of 1000 to 10000 nM.

As for `O=C(Nc1cccc(C(F)(F)F)c1)Nc1cc(S(=O)(=O)Nc2ccccc2O)ccc1-c1ccsc1` [Compound 142], the IC50 is more than 10000 nM.

As to `CN(c1ccccc1)S(=O)(=O)c1ccc(-c2ccsc2)c(NC(=O)Nc2cccc(C(F)(F)F)c2)c1` [Compound 143], the IC50 was in the range of 1000 to 10000 nM.

For `C[C@@H](NS(=O)(=O)c1ccc(-c2ccsc2)c(NC(=O)Nc2cccc(C(F)(F)F)c2)c1)c1ccccc1` [Compound 144], the IC50 is 1000 to 10000 nM.

As to `C[C@H](NS(=O)(=O)c1ccc(-c2ccsc2)c(NC(=O)Nc2cccc(C(F)(F)F)c2)c1)c1ccccc1` [Compound 145], the IC50 was 1000 to 10000 nM.

Turning to `O=C(Nc1cccc(C(F)(F)F)c1)Nc1cc(S(=O)(=O)Nc2ccc(O)cc2)ccc1-c1ccsc1` [Compound 146, N-(4-hydroxyphenyl)-4-(thiophen-3-yl)-3-(3-(3-(trifluoromethyl)phenyl)ureido)benzenesulfonamide], the IC50 lay in the range of 1000 to 10000 nM.

For the compound `O=C(Nc1cccc(C(F)(F)F)c1)Nc1cc(S(=O)(=O)Nc2cccc(C(F)(F)F)c2)ccc1-c1ccsc1` [Compound 147], the IC50 was 1000 to 10000 nM.

As to `O=C(Nc1cccc(C(F)(F)F)c1)Nc1cc(S(=O)(=O)Nc2cc[nH]n2)ccc1-c1ccsc1` [Compound 148], the IC50 was in the range of 1000 to 10000 nM.

Consider `O=C(Nc1cccc(C(F)(F)F)c1)Nc1cc(S(=O)(=O)Nc2ccccn2)ccc1-c1ccsc1` [Compound 149], for which the IC50 was 1000 to 10000 nM.

`O=C(Nc1cccc(C(F)(F)F)c1)Nc1cc(S(=O)(=O)Nc2cccnc2)ccc1-c1ccsc1` [Compound 150]: the IC50 was in the range of 1000 to 10000 nM.
